Assay results reported in ChEMBL document CHEMBL6109053, “Aspirin-based PROTACs as COX-2 degraders for anti-inflammation” (Bioorg Med Chem, 2025).
The source made the active and inactive calls. No cut-off for these calls is given here.

What was measured:
[1] = target: Protein cereblon/Prostaglandin G/H synthase 2 (Mus musculus) (UniProt Q05769+Q8C7D2); assay: PROTAC activity at COX-2/CRBN in mouse RAW264.7 cells assessed as downregulation of COX2 expression measured after 24 hrs by Western blot analysis; assay type: cell-based; conditions: dose 5-20 µM
RAW264.7 [2] = assay: Anti-inflammatory activity in LPS-induced mouse RAW264.7 cells; assay type: functional, cell-based
RAW264.7 [3] = assay: Cytotoxicity against mouse RAW264.7 cells at 20 uM incubated for 24 hrs by CCK-8 assay; assay type: toxicity, cell-based; conditions: raw264.7, 24 h
RAW264.7 [4] = assay: PROTAC activity at COX-2/VHL in mouse RAW264.7 cells assessed as downregulation of COX2 expression measured after 24 hrs by Western blot analysis; assay type: cell-based; conditions: dose 5-20 µM
[5] = target: T1, Prostaglandin G/H synthase 2 (Homo sapiens, UniProt P35354); assay: Inhibition of human recombinant COX-2 using S0168-2 as substrate preincubated for 10 mins followed by substrate addition and measured after 10 mins by microplate reader analysis
T1 sequence (P35354 whole entry): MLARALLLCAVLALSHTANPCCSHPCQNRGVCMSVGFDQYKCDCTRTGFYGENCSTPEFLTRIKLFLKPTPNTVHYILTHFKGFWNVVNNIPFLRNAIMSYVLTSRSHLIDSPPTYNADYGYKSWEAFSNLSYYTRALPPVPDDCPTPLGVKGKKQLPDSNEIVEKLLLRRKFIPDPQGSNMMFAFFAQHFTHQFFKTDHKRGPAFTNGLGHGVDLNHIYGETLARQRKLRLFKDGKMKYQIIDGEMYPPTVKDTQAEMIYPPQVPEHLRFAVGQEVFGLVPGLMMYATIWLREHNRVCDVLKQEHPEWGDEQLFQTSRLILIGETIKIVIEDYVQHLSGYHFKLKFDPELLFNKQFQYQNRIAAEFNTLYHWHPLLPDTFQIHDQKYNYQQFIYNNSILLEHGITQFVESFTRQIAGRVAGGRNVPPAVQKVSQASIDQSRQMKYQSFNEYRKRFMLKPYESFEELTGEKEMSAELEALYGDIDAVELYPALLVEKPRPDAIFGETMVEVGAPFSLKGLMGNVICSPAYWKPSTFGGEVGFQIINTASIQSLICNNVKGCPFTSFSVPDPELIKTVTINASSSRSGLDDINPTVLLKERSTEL

Sequence of Protein cereblon/Prostaglandin G/H synthase 2 (Mus musculus) (Q05769 whole entry, looked up): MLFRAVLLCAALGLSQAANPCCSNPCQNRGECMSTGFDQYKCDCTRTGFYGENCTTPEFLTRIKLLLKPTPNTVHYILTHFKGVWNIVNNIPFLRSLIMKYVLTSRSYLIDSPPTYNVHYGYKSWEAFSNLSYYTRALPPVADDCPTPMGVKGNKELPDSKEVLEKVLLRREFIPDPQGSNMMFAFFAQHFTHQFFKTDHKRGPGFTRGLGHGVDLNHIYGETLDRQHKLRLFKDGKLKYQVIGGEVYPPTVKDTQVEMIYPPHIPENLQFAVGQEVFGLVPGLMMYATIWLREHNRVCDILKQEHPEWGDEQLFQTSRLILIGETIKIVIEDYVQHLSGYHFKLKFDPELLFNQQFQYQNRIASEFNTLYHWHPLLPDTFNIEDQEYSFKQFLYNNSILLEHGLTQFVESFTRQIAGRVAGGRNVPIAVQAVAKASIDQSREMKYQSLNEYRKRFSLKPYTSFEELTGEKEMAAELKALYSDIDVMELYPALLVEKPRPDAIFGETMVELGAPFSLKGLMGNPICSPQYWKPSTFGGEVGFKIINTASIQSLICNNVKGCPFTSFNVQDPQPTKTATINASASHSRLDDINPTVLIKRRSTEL
Sequence of Protein cereblon/Prostaglandin G/H synthase 2 (Mus musculus) (Q8C7D2 whole entry, looked up): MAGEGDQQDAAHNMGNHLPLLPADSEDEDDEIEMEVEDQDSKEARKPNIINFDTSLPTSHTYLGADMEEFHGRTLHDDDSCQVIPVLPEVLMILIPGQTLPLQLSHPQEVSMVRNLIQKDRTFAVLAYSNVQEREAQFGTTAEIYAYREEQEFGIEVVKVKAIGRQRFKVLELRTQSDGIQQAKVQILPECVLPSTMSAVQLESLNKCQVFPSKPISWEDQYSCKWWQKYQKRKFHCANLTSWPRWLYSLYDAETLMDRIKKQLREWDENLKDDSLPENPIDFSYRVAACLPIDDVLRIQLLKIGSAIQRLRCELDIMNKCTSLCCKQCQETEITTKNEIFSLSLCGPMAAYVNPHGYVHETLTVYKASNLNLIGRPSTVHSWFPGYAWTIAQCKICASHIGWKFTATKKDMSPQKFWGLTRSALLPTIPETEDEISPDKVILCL

Compound | Activity [1] | Activity (RAW264.7 [2]) | Activity (RAW264.7 [3]) | Activity (RAW264.7 [4]) | IC50 [5] [µM]
O=C1CCC(N2C(=O)c3cccc(NC4CCC(NC(=O)CCCCn5cc(CCC(=O)Oc6ccccc6C(=O)O)nn5)CC4)c3C2=O)C(=O)N1 (configuration not stated) | Dose-dependent-effect | Active | Non-toxic |  | 
Cc1ncsc1-c1ccc([C@@H](C)NC(=O)[C@@H]2C[C@@H](O)CN2C(=O)[C@@H](NC(=O)CCCCn2cc(CCC(=O)Oc3ccccc3C(=O)O)nn2)C(C)(C)C)cc1 |  | Active | Non-toxic | Dose-dependent-effect | 323
